Data set [1] has as its system male ICR mice. The data set is described as follows: MK-801-induced hyperactivity in mice. Format: in vivo. Particulars: single oral dose. The procedure: Immediately after injection with either saline or MK-801 (0.3 mg/kg, i.p.), the mice were placed into the test chambers (29 cm × 29 cm × 30 cm) for 60 min of locomotion recording using a tracking and computerized analysis system (TopScan Version 3.00, Clever Sys Inc., Leesburg, VA).

For data set [2], the target named is T1, Alpha2A receptor (Homo sapiens, UniProt P08913).
T1 construct: expressed in transfected cells; host or cells: HEK293/Alpha2A (constructed by Shanghai shujing Biopharma)
T1 sequence (P08913 1-465): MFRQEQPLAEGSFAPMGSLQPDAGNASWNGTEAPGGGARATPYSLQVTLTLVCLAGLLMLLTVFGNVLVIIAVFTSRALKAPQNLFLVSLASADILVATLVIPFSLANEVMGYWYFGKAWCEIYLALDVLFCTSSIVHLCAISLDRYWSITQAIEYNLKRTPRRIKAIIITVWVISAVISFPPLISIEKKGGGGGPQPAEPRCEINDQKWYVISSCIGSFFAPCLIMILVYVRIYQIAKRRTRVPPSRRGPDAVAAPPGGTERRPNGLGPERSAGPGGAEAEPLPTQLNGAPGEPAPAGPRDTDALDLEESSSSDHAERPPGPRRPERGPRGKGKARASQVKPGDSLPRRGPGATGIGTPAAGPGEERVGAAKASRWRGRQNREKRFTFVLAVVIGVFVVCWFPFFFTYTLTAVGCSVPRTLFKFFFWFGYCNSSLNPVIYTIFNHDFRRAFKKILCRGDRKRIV
The experiment in a line: Alpha2A receptor functional assay (cAMP assay). Format: cell-based. Particulars: HEK293/Alpha2A cells, read-out: Alpha2AR, IC50. In general terms: Cyclic AMP is a second messenger, typically raised through Gs and lowered through Gi signalling.

Data set [3] can be described thus: Pharmacokinetics assay in rats. Format: in vivo, male SD rats. On the procedure:
Six male SD rats (7 weeks of age) were randomly divided into two groups with three rats per group. Animals were fasted overnight and had free access to water before dosing. For the intravenous group, male SD rats were administered NH300094 by single intravenous bolus administration at a dose of 2 mg/kg. For the oral group, male SD rats were dosed orally with NH300094 at a dose of 10 mg/kg. Serial blood samples were collected at different time points (Pre-dose, 0.033, 0.083, 0.25, 0.5, 1, 2, 4, 6, 8, 12 and 24 h for the intravenous group; Pre-dose, 0.167, 0.333, 0.5, 1, 2, 4, 6, 8, 10, 12 and 24 h for the oral group) via jugular vein puncture from each study animal. All blood samples were transferred into commercial tube containing K2-EDTA. Plasma samples were prepared by centrifuging the blood samples at approximately 4°C, 3,200×g for 15 min, and then stored at −70°C until analysis (Supplementary Materials). The pharmacokinetic parameters were calculated using WinNonlin software (Version 6.3) according to non-compartmental model.

Data set [4] deals with T2, H1 receptor (Homo sapiens, UniProt P35367).
T2 construct: host or cells: HEK293/H1
The experiment in a line: H1 receptor functional assay (calcium flow, FLIPR). Particulars: HEK293/H1 cells, read-out: H1R, IC50. Type of data set: cell-based.

The subject of data set [5] is male ICR mice. Particulars: p.o.
Data set [6] concerns the target D2S receptor (Homo sapiens, UniProt P14416). The data set is described as follows: D2S receptor functional assay (cAMP assay, antagonist). Type of data set: cell-based. Particulars: antagonist activity, CHO-K1/D2 cells, read-out: D2SR, IC50.
Data set [7] concerns the target D3 receptor (Homo sapiens, UniProt P35462). The experiment in a line: D3 receptor functional assay (Nano-Glo luciferase assay system). Type of data set: cell-based. Particulars: antagonist activity, CHO-K1/D3 cells, read-out: D3R, IC50.
Data set [8] has as its target 5-HT1B receptor (Homo sapiens, UniProt P28222). The data set is described as follows: 5-HT1B receptor functional assay (cAMP assay, inverse agonist). Type of data set: cell-based. Particulars: inverse agonist activity, CHO-K1/5-HT1B cells, read-out: 5HT1BR, EC50.
Data set [9] deals with T3, Alpha1A receptor (Homo sapiens, UniProt P35348).
T3 construct: expressed in transfected cells; host or cells: HEK293/Alpha1A (constructed by Shanghai shujing Biopharma)
T3 sequence (P35348 1-466): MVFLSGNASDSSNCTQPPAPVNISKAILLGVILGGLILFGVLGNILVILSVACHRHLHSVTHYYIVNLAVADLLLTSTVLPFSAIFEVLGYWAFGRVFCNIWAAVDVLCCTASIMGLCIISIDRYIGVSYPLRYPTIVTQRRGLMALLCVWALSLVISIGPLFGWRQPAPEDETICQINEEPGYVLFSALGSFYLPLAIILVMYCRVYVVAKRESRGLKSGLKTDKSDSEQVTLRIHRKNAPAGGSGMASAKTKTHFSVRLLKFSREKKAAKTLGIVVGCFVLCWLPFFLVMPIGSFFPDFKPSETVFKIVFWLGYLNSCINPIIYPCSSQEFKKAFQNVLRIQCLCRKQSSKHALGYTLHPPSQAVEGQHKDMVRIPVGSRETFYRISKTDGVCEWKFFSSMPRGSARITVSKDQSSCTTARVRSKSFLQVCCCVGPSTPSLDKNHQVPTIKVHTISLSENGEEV
The experiment in a line: Alpha1A receptor functional assay (calcium flow, FLIPR). Format: cell-based. Particulars: HEK293/Alpha1A cells, read-out: Alpha1AR, IC50.

Data set [10] in a line: in vivo. Particulars: male, ICR, mouse, po.
Data set [11] concerns the target T4, 5-HT7 receptor (Homo sapiens, UniProt P34969).
T4 construct: host or cells: HEK293/5-HT7
The data set is described as follows: 5-HT7 receptor functional assay (Bright-Glo Luciferase assay system). Format: cell-based. Particulars: HEK293/5-HT7 cells, read-out: 5HT7R, IC50.

Setting [12] is: rat, plasma, intravenous, 2 mg/kg, male SD rats.
Setting [13] is: rat, plasma, oral, 10 mg/kg, male SD rats.

One may read the ED50 as the dose at which the effect has come halfway, by size or by number of responders. As usually defined, the IC50 is the point on the concentration scale where inhibition reaches its midpoint. As usually defined, the bioavailability is dose-corrected exposure relative to a reference, in per cent. Read a high bioavailability as much systemic uptake. For orientation: AUC(0-inf) means the area under the concentration-time curve extrapolated to infinity. High values mean more exposure, low ones less exposure. The term AUC(0-t) denotes exposure summed from dosing to a finite time, without extrapolation to infinity. Lower therefore signals less exposure. Broadly, the clearance is the rate of elimination divided by the concentration. Low values mean inefficient removal, high ones efficient removal. As usually defined, the half-life is how long it takes for the measured level to halve. A high value points to slow loss. Usually Cmax stands for the peak of the concentration-time curve. What is called Tmax is the time at which the peak concentration occurs. A word on the EC50: it is the concentration giving half of the maximal effect.

Sequence of D3 receptor (P35462 whole entry): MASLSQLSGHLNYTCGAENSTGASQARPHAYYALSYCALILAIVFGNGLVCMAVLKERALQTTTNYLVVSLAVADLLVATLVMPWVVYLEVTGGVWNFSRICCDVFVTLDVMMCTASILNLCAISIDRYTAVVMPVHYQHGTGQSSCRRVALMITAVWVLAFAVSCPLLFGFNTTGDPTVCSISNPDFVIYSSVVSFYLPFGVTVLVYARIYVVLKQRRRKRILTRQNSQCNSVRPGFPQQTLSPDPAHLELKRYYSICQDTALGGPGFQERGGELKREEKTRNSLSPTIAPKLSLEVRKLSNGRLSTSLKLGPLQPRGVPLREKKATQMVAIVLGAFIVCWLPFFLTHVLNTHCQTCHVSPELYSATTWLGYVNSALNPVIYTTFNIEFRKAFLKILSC
T2 sequence (P35367 whole entry): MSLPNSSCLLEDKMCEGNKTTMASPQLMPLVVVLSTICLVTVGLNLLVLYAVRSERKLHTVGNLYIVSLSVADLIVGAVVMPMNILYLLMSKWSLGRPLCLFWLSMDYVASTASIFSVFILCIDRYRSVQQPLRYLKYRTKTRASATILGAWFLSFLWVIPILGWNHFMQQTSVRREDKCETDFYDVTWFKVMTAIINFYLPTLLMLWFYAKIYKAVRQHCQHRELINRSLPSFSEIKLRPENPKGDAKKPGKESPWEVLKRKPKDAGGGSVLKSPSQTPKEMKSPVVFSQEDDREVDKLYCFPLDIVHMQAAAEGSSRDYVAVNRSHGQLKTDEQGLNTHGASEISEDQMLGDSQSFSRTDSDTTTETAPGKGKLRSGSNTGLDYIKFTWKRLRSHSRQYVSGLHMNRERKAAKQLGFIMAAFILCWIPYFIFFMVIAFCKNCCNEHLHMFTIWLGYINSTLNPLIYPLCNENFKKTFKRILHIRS
Sequence of 5-HT1B receptor (P28222 whole entry): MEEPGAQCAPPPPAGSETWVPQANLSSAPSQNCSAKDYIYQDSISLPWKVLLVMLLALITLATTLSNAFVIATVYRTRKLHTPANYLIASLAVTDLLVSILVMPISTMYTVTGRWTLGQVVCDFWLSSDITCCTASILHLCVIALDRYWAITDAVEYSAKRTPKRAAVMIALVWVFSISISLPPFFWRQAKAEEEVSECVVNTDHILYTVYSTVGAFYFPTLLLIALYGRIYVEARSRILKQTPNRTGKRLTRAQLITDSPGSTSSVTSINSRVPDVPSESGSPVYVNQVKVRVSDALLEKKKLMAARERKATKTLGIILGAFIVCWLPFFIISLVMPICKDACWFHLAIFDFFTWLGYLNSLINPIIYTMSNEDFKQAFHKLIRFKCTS
T4 sequence (P34969 whole entry): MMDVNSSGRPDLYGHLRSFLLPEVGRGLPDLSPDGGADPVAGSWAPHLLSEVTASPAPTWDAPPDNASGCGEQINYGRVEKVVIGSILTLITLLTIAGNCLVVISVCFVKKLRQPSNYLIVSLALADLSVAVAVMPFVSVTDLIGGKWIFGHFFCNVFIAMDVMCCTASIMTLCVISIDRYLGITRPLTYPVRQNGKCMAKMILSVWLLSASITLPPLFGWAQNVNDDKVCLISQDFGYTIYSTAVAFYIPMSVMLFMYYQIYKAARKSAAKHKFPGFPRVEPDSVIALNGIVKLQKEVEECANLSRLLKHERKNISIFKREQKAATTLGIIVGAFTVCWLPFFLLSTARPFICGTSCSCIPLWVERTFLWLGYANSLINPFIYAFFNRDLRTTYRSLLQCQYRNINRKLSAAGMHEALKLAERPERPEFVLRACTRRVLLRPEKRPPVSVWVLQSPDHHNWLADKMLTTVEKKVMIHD
Sequence of D2S receptor (P14416 1-414 isoform P14416-2): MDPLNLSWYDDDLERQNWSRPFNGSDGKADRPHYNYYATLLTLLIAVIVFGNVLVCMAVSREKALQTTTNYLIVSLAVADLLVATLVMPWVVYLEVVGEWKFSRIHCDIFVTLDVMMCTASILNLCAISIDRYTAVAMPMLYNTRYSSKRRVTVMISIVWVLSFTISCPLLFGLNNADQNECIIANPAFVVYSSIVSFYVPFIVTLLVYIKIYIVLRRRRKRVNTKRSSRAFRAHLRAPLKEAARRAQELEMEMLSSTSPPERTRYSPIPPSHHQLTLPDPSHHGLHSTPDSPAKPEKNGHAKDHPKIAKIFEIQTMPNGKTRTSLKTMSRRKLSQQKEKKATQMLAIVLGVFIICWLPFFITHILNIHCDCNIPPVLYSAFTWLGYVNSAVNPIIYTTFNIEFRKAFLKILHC

In the case of `O=C1CCc2cc(OCCCN3CCC(c4noc5cc(F)ccc45)CC3)cc3c2N1CC3` [NH300094, 8-(3-(4-(6-fluorobenzo [d]isoxazol-3-yl)piperidin-1-yl)propoxy)-1,2,5,6-tetrahydro-4H-pyrrolo [3,2,1-ij] quinolin-4-one], the ED50 was about 0.07 mg/kg in data set [1] (Mus musculus, MK-801 0.3 mg/kg i.p., read-out: ED50, inhibition of MK-801-induced hyperactivity) and 6.73 mg/kg in data set [10]. For the same compound, the “Minimum effective dose (MED), MK-801-induced hyperactivity” value in data set [1] turned out to be 0.03 mg/kg. For the same compound, the 50% inhibitory concentration (IC50) in [2] is 314 nM; in data set [4], 126 nM; in data set [6] it was 11.7 ± 9.38 nM; in [7], 31.5 ± 23.1 nM; in data set [9], 28.5 nM; in [11] it was 5520 nM. This compound had a bioavailability in data set [3] (male, SD, rat, plasma, oral, 10 mg/kg, oral 10 mg/kg vs intravenous 2 mg/kg, male SD rats) of about 87.6%. In [3] (oral administration, rats (rounded value in text)), the “area under the concentration time-curves for time zero to infinity” value turned out to be 14800 ng/mL*h. Besides, the AUC(0-inf) in data set [3] (setting [12]) was 3380 ng·h/mL; in data set [3] (setting [13]) it was 14800 ng·h/mL. The AUC(0-t) was determined as 3370 ng·h/mL in data set [3] (setting [12]) and 14800 ng·h/mL in data set [3] (setting [13]). Besides, the C0 in [3] (setting [12]) was found to be 10800 ng/mL. The clearance in data set [3] (setting [12]) is 9.91 mL/min/kg. The figures for the half-life in data set [3] (setting [12]) and in [3] (setting [13]) were 1.73 h and 1.28 h, respectively. Besides, the Vd in data set [3] (rat, plasma, intravenous, 2 mg/kg, male SD rats, read-out: Vdss) amounted to 0.379 L/kg. This compound returned a Cmax in data set [3] (setting [13]) of 8710 ng/mL. In addition, the Tmax in data set [3] (setting [13]) stood at 0.389 h. Further, the “minimal dose that induced catalepsy” value in data set [5] came out at 3 mg/kg. For the same compound, the EC50 in data set [8] was 28.4 ± 12.5 nM.

(Values after article PMC10848157, “Assessing NH300094, a novel dopamine and serotonin receptor modulator with cognitive enhancement property for treating schizophrenia” (Frontiers in Pharmacology, 2024).)
